In patent US20140186268A1, “Oxide Ferrimagnetics with Spinel Structure Nanoparticles and Iron Oxide Nanoparticles, Biocompatible Aqueous Colloidal Systems Comprising Nanoparticles, Ferriliposomes, and Uses Thereof” (priority 2011, published 2014):

How the values were obtained:
[1] = system: orthotopic allograft mouse breast cancer model; test: Doxorubicin treatment, orthotopic allograft mouse breast cancer model; assay type: in vivo; conditions: single dose 15 mg/kg, two weeks after administration
Procedure: Doxorubicin hydrochloride (Sigma) was dissolved in ferromagnetic iron oxide nanoparticles containing stabilizing buffer and then encapsulated into PEGylated liposomes. Three weeks after transplantations of primary cells (average tumour volume 75 mm^3) ferriliposomes loaded with doxorubicin were administered at a dose of 15 mg/kg (Dox+FLt, n=4). Magnets of 0.33 T (diameter 4.5 mm) were glued to the tumour by cyanoacrylate before injection and removed by acetone 24 hours after administration. Control group was treated with systemic administration of doxorubicin without any targeting (Dox, n=4). The horizontal and vertical tumour diameters were measured by digital calliper twice per week and volumes were calculated using the formula V=(a×b2)π/6 where a and b are the longer and shorter diameter of the tumour, respectively.

[2] = design: species or system rats; conditions: rat, in vivo, 500 mg/kg
Procedure: Female rats were treated with 500 mg/kg of iron oxide nanoparticles (n=16) and stabilizing buffer (n=8) as control. […] were sacrificed at day 7 and 12 after injection. Blood was collected and serum separation performed by centrifugation in Li-heparin 0.6 ml flasks (Fuji Photo Film Co., Ltd. Life Science Products Division). Biochemical parameters of creatinine, urea nitrogen, alanine transaminase, aspartate transaminase, creatine phosphokinase and total bilirubin in blood were analyzed by biochemical analyzer Fujifilm DRI CHEM 3500i (Fuji Photo Film Co., Ltd. Life Science Products Division). The kidneys, spleen, liver, heart and lung tissues were collected and fixed in 10% neutral formalin. Organs were dehydrated and maintained in paraffin blocks. 5 μm paraffin sections were stained by hematoxylin and eosin for histo-pathological analysis. iron oxide nanoparticles were detected in animal tissues by Prussian blue staining with carmine (Sigma).

COc1cccc2c1C(=O)c1c(O)c3c(c(O)c1C2=O)C[C@@](O)(C(=O)CO)C[C@@H]3O[C@H]1C[C@H](N)[C@H](O)[C@H](C)O1 [doxorubicin]
reduction of tumour volume [1]: 60%

Fe3O4 [iron oxide nanoparticles]
histo-pathological analysis of lung, liver, kidney and spleen [2]: No morphological changes
